According to US10729701B2, “Compounds that are analogs of squalamine, used as antibacterial agents” (VIRBAC, priority 2015, dated 2020):
≈ marks a conversion by molar mass, not a printed value. Read-outs that look alike come from different tables or passages of the source.

What was measured:
CHO-K1 cells = assay: WST-1 cytotoxicity test; format: cell-based, Chinese hamster; conditions: Cricetulus griseus, WST-1 test, 24 hours, concentration reducing cell viability by 50%
Experimental: The WST-1 test was used to measure the cytotoxic activity of the products. This is a colorimetric test which makes it possible to measure the viability and the degree of cell proliferation.
The WST-1 test was carried out on Chinese hamster ovary cells. The CHO-K1 cells (ATCC, USA) are kept cultured in McCoy's 5 A medium additivated with 10% of fetal calf serum, with 2 mM of L-glutamine and with a penicillin/streptomycin mixture (100 U/ml: 10 μg/ml). Incubating is carried out at 37° C. under an atmosphere enriched in CO2 (5%) and subculturing is carried out every two days.
The cells are transferred into 96-well plates (25 000 cells/ml) in complete McCoy's 5 A medium and are maintained at 37° C. for 24 h under a humid atmosphere enriched in CO2 (5%). Increasing concentrations of test products are added to the wells in duplicate tests and 8 growth controls containing the cells in the medium alone are included in each series of tests. After 24 hours at 37° C. (5% of CO2), the culture medium is removed, the cells are rinsed in phosphate buffer (PBS) and 50 μl of PBS containing 10% of WST-1 reactant are added to each well. After incubating at 37° C. for 20 minutes, the results are read by spectrophotometry at 450 nm.
The results are expressed in the form of dose-response relationships, modeled by a nonlinear regression analysis using the TableCurve software.

P. aeruginosa (PAO1) [1] = assay: Potentiating of doxycycline activity by aminosteroidal derivative; format: cell-based, Pseudomonas aeruginosa; conditions: Doxycycline concentration used 2 μg/ml, 37° C., 24 h
Experimental: (§1) This method requires the use of a 96-well plate; 100 μl of a liquid culture medium are deposited in each well and then inoculated with the microbial suspension prepared above. The necessary volume to be inoculated is calculated for an OD of 0.01, which corresponds to approximately 5×10^6 bacteria in each well. In this plate, the first line corresponds to a negative control (200 μl of sterile culture medium in each well), the second line to a positive control (100 μl of sterile culture medium+100 μl of a bacterial suspension), the third line contains 192 μl of culture medium; 8 μl of aminosteroidal product to be tested are placed in each well. Subsequently, cascade dilution is carried out starting from this line. 8 μl of a doxycycline solution (1 mg dissolved in 20 ml) are subsequently added to each well of lines 3 to 8, in order to obtain a final concentration of antibiotic of 2 μg/ml. 92 μl of bacterial suspension are subsequently added to lines 3 to 8. The results (the determination of the MIC (2 μg/ml of doxycycline) in the presence of X μg/ml of aminosteroidal derivative) are read after incubating at 37° C. for 24 h in a humid atmosphere. After incubating at 37° C. for 24 h, 40 μl of nitrotetrazolium iodide are added to each well, making it possible to reveal the presence of living bacteria by coloring the medium pink.
(§2) The use of low amounts of aminosteroidal derivatives makes it possible to restore (to reduce) the necessary concentration of antibiotic to kill the strain under consideration.

P. aeruginosa (PAO1) [2] = assay: Potentiating of chloramphenicol activity by aminosteroidal derivative; format: cell-based, Pseudomonas aeruginosa; conditions: Chloramphenicol concentration used 4 μg/ml
Experimental: as §1, with “8 μl of a doxycycline solution (1 mg dissolved in 20 ml) are subsequently added to each well of lines 3 to 8, in order to obtain a final concentration of antibiotic of 2 μg/ml.” left out, “The results (the determination of the MIC (2 μg/ml of doxycycline) in the presence of X μg/ml of aminosteroidal derivative) are read after incubating at 37° C. for 24 h in a humid atmosphere.” left out
as §2

[3] = system: S. aureus Methicillin-resistant; assay: Minimum inhibitory concentration (MIC), microplate dilution; format: cell-based; conditions: Staphylococcus aureus
Experimental: (§3) A positive control (1940 μl of culture medium+40 μl of DMSO+20 μl of the bacterial suspension) from a defrosted biological strain (the preservation of the biological strains is carried out at −80° C. in glycerol).
(§4) The microorganisms were handled under a hood in the laboratory of L2 type and, before any handling operation, a UV cycle was programmed and only sterile material was used. […] The chemical molecules to be tested were prepared in a DMSO/methanol (50/50) mixture at a concentration of 5 mg/ml.
(§5) After incubating for 24 h, the optical density was measured using a spectrophotometer at 600 nm by withdrawing 100 μl of the bacterial suspension diluted in 900 μl of the sterile culture medium. This test required the use of a 96-well plate and the necessary volume of the microbial suspension to be inoculated was calculated for an OD corresponding to a value equal to 0.01 in each well. In this plate, the first line corresponded to the negative control (195 μl of sterile culture medium in each well), the second line to the positive control (inoculated culture medium with the addition of 2% of DMSO), the third line was charged twice with bacterial suspension, 8 μl of product to be tested was placed in each well. Subsequently, cascade half dilution was carried out starting from this line.
(§6) The first column was used as inhibition control. A sterile filter was subsequently placed on the microplate, allowing the passage of gases but not of contaminants. The microplate was incubated at 37° C. in a humid atmosphere for 24 h.
(§7) NB: The medium used is the Mueller-Hinton (MH) medium for the bacteria. All the tests were carried out in duplicate.
(§8) After incubation, the filter was replaced with a transparent film and subsequently reading of OD was carried out in an IEMS plate spectrophotometer at 620 nm. A calculation of the minimum inhibitory concentration (MIC) was carried out.

E. coli ATCC 25922 = assay: as above; format: cell-based; conditions: Escherichia coli, ATCC25922
Experimental: as §3, §4, §5, §6, §7, §8

S. faecalis = assay: as above; format: cell-based, E. faecalis CIP 103015; conditions: Enterococcus faecalis; Table I; Mueller-Hinton medium, 37° C., 24 h
Experimental: (§9) A positive control (1940 μl of culture medium+40 μl of DMSO+20 μl of the bacterial suspension) from a defrosted biological strain (the preservation of the biological strains is carried out at −80° C. in glycerol). The strains used are S. aureus ATCC 25923, E. coli ATCC 25922, P. aeruginosa ATCC 27853, C. albicans CIP 1180-79 and E. faecalis CIP 103015.
as §4, §5, §6, §7, §8

C. albicans = assay: as above; format: cell-based, C. albicans CIP 1180-79; conditions: Candida albicans; Table I; 37° C., 24 h
Experimental: as §9, §4, §5, §6, §7, §8

S. aureus ATCC 25923 = assay: as above; format: cell-based; conditions: Staphylococcus aureus, ATCC25923; Table I; Mueller-Hinton medium, 37° C., 24 h
Experimental: as §9, §4, §5, §6, §7, §8

P. aeruginosa ATCC 27853 = assay: as above; format: cell-based; conditions: Pseudomonas aeruginosa, ATCC27853; Table I; Mueller-Hinton medium, 37° C., 24 h
Experimental: as §9, §4, §5, §6, §7, §8

P. aeruginosa (PAO1) [4] = assay: MIC of conventional antibiotics alone; format: cell-based; conditions: Pseudomonas aeruginosa
[5] = Table I, Mueller-Hinton medium, 37° C., 24 h
[6] = Table II, comparison with state of the art compounds
[7] = Table I, Mueller-Hinton medium, 37° C., 24 h, read-out: MIC E. coli ATCC 25922
[8] = Table II, comparison with state of the art compounds, read-out: MIC E. coli

MIC (P. aeruginosa (PAO1) [4]; antibiotic alone, Gram-negative strain of P. aeruginosa (PAO1), read-out: MIC) | SMILES | IC50 (CHO-K1 cells) | Concentration of compound necessary in order to restore the activity of the antibiotic under consideration: Doxycycline (P. aeruginosa (PAO1) [1]) | Concentration of compound necessary in order to restore the activity of the antibiotic under consideration: Chloramphenicol (P. aeruginosa (PAO1) [2]) | MIC [3, 5] | MIC [3, 6] | MIC (E. coli ATCC 25922; [7]) | MIC (E. coli ATCC 25922; [8]) | MIC (S. faecalis) | MIC (C. albicans) | MIC (S. aureus ATCC 25923) | MIC (P. aeruginosa ATCC 27853) | MIC (P. aeruginosa (PAO1) [4]; PAO1)
 | CC(C)CCC[C@@H](C)[C@H]1CCC2C3C(CC[C@@]21C)[C@@]1(C)CC[C@H](NCCCNCCCCNCCCN)C[C@@H]1C[C@@H]3O (stereo partly drawn) [SA-2, 3β-Spermino-7β-hydroxy-5α-cholestane] | 50 µM | 4 µg/mL | 16 µg/mL | 2 µg/mL (≈ 3.4 µM) | 2 µg/mL (≈ 3.4 µM) | 32 µg/mL (≈ 54.3 µM) | 32 µg/mL (≈ 54.3 µM) | 2 µg/mL (≈ 3.4 µM) | 2 µg/mL (≈ 3.4 µM) | 4 µg/mL (≈ 6.79 µM) | 32 µg/mL (≈ 54.3 µM) | 
40 µg/mL | C[C@H]1c2cccc(O)c2C(=O)C2=C(O)[C@]3(O)C(=O)C(C(N)=O)=C(O)[C@@H](N(C)C)[C@@H]3[C@@H](O)[C@@H]21 [doxycycline] |  |  |  |  |  |  |  |  |  |  |  | 
 | CC(C)CCC[C@@H](C)[C@H]1CCC2C3C(CC[C@@]21C)[C@@]1(C)CC[C@H](NCCN(CCN)CCN)C[C@@H]1C[C@H]3O (stereo partly drawn) [SA-6, 3β-(Tris(2-aminoethyl)amine)-7β-hydroxy-5α-cholestane] | 46 µM | 2.5 µg/mL | 20 µg/mL | 5 µg/mL (≈ 9.38 µM) | 5 µg/mL (≈ 9.38 µM) | 20 µg/mL (≈ 37.5 µM) | 20 µg/mL (≈ 37.5 µM) | 2.5 µg/mL (≈ 4.69 µM) | 2.5 µg/mL (≈ 4.69 µM) | 5 µg/mL (≈ 9.38 µM) | 40 µg/mL (≈ 75.1 µM) | 
 | O=C(N[C@H](CO)[C@H](O)c1ccc([N+](=O)[O-])cc1)C(Cl)Cl [chloramphenicol] |  |  |  |  |  |  |  |  |  |  |  | 1020 µg/mL
 | CC(C)[C@@H](CC[C@@H](C)[C@H]1CC[C@H]2[C@@H]3[C@H](O)C[C@H]4C[C@@H](NCCCNCCCCN)CC[C@]4(C)[C@H]3CC[C@]12C)OS(=O)(=O)O [Squalamine, squalamine] |  | 1.75 µg/mL | 1.75 µg/mL | 4 µg/mL (≈ 6.37 µM) |  | 12 µg/mL (≈ 19.1 µM) |  | 4 µg/mL (≈ 6.37 µM) | 2 µg/mL (≈ 3.18 µM) | 4 µg/mL (≈ 6.37 µM) | 20 µg/mL (≈ 31.8 µM) | 
 | CC(C)CCC[C@@H](C)[C@H]1CCC2C3C(CC[C@@]21C)[C@@]1(C)CC[C@H](NCCCNCCCN)C[C@@H]1C[C@@H]3O (stereo partly drawn) [SA-3, 3β-Norspermidino-7β-hydroxy-5α-cholestane] | 32 µM | 5 µg/mL | 10 µg/mL | 2.5 µg/mL (≈ 4.83 µM) | 2.5 µg/mL (≈ 4.83 µM) | 20 µg/mL (≈ 38.6 µM) | 20 µg/mL (≈ 38.6 µM) | 2.5 µg/mL (≈ 4.83 µM) | 2.5 µg/mL (≈ 4.83 µM) | 5 µg/mL (≈ 9.65 µM) | 40 µg/mL (≈ 77.2 µM) | 
 | CC(C)CCC[C@@H](C)[C@H]1CCC2C3C(CC[C@@]21C)[C@@]1(C)CC[C@H](NCCCCN)C[C@@H]1C[C@H]3O (stereo partly drawn) [SA-5, 3β-(1,4-Diaminobutane)-7β-hydroxy-5α-cholestane] | 15 µM |  |  | 4 µg/mL (≈ 8.42 µM) | 4 µg/mL (≈ 8.42 µM) | 32 µg/mL (≈ 67.4 µM) | 32 µg/mL (≈ 67.4 µM) | 4 µg/mL (≈ 8.42 µM) | 4 µg/mL (≈ 8.42 µM) | 4 µg/mL (≈ 8.42 µM) | 32 µg/mL (≈ 67.4 µM) | 
 | CC(C)CCC[C@@H](C)[C@H]1CCC2C3C(CC[C@@]21C)[C@@]1(C)CC[C@H](NCCCN)C[C@@H]1C[C@H]3O (stereo partly drawn) [SA-4, 3β-(1,3-Diaminopropane)-7β-hydroxy-5α-cholestane] | 9 µM |  |  | 2 µg/mL (≈ 4.34 µM) | 2 µg/mL (≈ 4.34 µM) | 32 µg/mL (≈ 69.4 µM) | 32 µg/mL (≈ 69.4 µM) | 2 µg/mL (≈ 4.34 µM) | 2 µg/mL (≈ 4.34 µM) | 4 µg/mL (≈ 8.68 µM) | 32 µg/mL (≈ 69.4 µM) | 
 | CC(C)CCC[C@@H](C)[C@H]1CCC2C3C(CC[C@@]21C)[C@@]1(C)CC[C@H](NCCCNCCCCNCCCN)C[C@@H]1C[C@H]3O (stereo partly drawn) [SA-1, 3β-Spermino-7α-hydroxy-5α-cholestane] | 15 µM | 4 µg/mL | 16 µg/mL | 2 µg/mL (≈ 3.4 µM) | 2 µg/mL (≈ 3.4 µM) | 16 µg/mL (≈ 27.2 µM) | 16 µg/mL (≈ 27.2 µM) | 2 µg/mL (≈ 3.4 µM) | 2 µg/mL (≈ 3.4 µM) | 4 µg/mL (≈ 6.79 µM) | 32 µg/mL (≈ 54.3 µM) | 
